Reference: PubChem BioAssay AID328 (DTP/NCI, 2004)
Where “and” joins values, the source holds several entries; their conditions need not be identical. Equal values may be shown once. Toxic doses and inconclusive results are not listed.

System: BDF1 mice, P388 leukemia ip, median survival T/C
Experiment: NCI In Vivo Anticancer Drug Screen. Data for tumor model P388 Leukemia (intraperitoneal) in B6D2F1 (BDF1) mice
Details: endpoint: median survival time, higher = longer survival
Outline: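 In tumour-bearing mice, survival after compound treatment is set against the vehicle group and given as a quotient.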

[1] = dose: 100.0 mg/kg/injection, schedule: Q01DX001 (ip), vehicle: Klucel (hydroxypropylcellulose) (HPC)
[2] = dose: 100.0 mg/kg/injection, schedule: Q04DX003 (ip), vehicle: Klucel (hydroxypropylcellulose) (HPC)
[3] = dose: 200.0 mg/kg/injection, schedule: Q01DX001 (ip), vehicle: Klucel (hydroxypropylcellulose) (HPC)
[4] = dose: 200.0 mg/kg/injection, schedule: Q04DX003 (ip), vehicle: Klucel (hydroxypropylcellulose) (HPC)
[5] = dose: 400.0 mg/kg/injection, schedule: Q04DX003 (ip), vehicle: Klucel (hydroxypropylcellulose) (HPC)
[6] = dose: 100.0 mg/kg/injection, schedule: Q04DX003 (ip), vehicle: saline with Tween-80
[7] = dose: 200.0 mg/kg/injection, schedule: Q04DX003 (ip), vehicle: saline with Tween-80
[8] = dose: 400.0 mg/kg/injection, schedule: Q04DX003 (ip), vehicle: saline with Tween-80
[9] = dose: 50.0 mg/kg/injection, schedule: Q01DX009 (ip), vehicle: saline with Tween-80
[10] = dose: 100.0 mg/kg/injection, schedule: Q01DX009 (ip), vehicle: saline with Tween-80
[11] = dose: 200.0 mg/kg/injection, schedule: Q01DX009 (ip), vehicle: saline with Tween-80
[12] = dose: 400.0 mg/kg/injection, schedule: Q01DX009 (ip), vehicle: saline with Tween-80

C/C=C(/C)N(C(C)=O)N(C(C)=O)c1ccc([N+](=O)[O-])cc1[N+](=O)[O-]
T/C [1]: 109 % of control
T/C [2]: 90 % of control
T/C [3]: 100 % of control
T/C [4]: 104 % of control
T/C (dose: 400.0 mg/kg/injection, schedule: Q01DX001 (ip), vehicle: Klucel (hydroxypropylcellulose) (HPC)): 109 % of control
T/C [5]: 95 % of control

O=C(NCc1cnccn1)c1ccccc1Cl
T/C [6]: 92 % of control
T/C [7]: 104 % of control
T/C [8]: 100 % of control

CC[CH2][Pb]([CH2]CC)([CH2]CC)[O]C(=O)C(Cl)(Cl)Cl
T/C (dose: 3.12 mg/kg/injection, schedule: Q01DX009 (ip), vehicle: saline with Tween-80): 122 % of control
T/C (dose: 6.25 mg/kg/injection, schedule: Q01DX009 (ip), vehicle: saline with Tween-80): 121 % of control
T/C (dose: 12.5 mg/kg/injection, schedule: Q01DX009 (ip), vehicle: saline with Tween-80): 108 % of control

Nc1nc(N)c2nc(CNc3ccc(C(=O)NC(CC(=O)O)C(=O)O)cc3)cnc2n1 (stereo not given)
T/C (dose: 66.0 mg/kg/injection, schedule: Q04DX003 (ip), vehicle: saline with Tween-80): 104 % of control
T/C [6]: 100 % of control

N#Cc1ccc(C(=O)/C=C/c2ccc(OCc3ccccc3)cc2)cc1
T/C [9]: 91 % of control
T/C [10]: 89 % of control
T/C [11]: 91 % of control

S=C(S)NCCNC(=S)S
T/C (dose: 40.0 mg/kg/injection, schedule: Q01DX009 (ip), vehicle: saline): 120 % of control
T/C (dose: 60.0 mg/kg/injection, schedule: Q01DX009 (ip), vehicle: saline): 108 % of control
T/C (dose: 85.0 mg/kg/injection, schedule: Q04DX003 (ip), vehicle: saline): 109 % of control
T/C (dose: 88.0 mg/kg/injection, schedule: Q01DX009 (ip), vehicle: saline): 100 % of control
T/C (dose: 88.0 mg/kg/injection, schedule: Q04DX003 (ip), vehicle: saline): 109 % of control
T/C (dose: 100.0 mg/kg/injection, schedule: Q01DX009 (ip), vehicle: saline): 115 % of control
T/C (dose: 100.0 mg/kg/injection, schedule: Q04DX003 (ip), vehicle: saline): 109 % of control and 118 % of control
T/C (dose: 132.0 mg/kg/injection, schedule: Q04DX003 (ip), vehicle: saline): 104 % of control
T/C (dose: 150.0 mg/kg/injection, schedule: Q01DX009 (ip), vehicle: saline): 115 % of control
T/C (dose: 300.0 mg/kg/injection, schedule: Q04DX003 (ip), vehicle: saline): 109 % of control
T/C (dose: 350.0 mg/kg/injection, schedule: Q01DX009 (ip), vehicle: saline): 120 % of control
T/C (dose: 400.0 mg/kg/injection, schedule: Q04DX003 (ip), vehicle: saline): 100 % of control and 118 % of control

O=C1C=C(c2ccccc2)C(c2ccccc2)C(c2ccccc2)C1 (stereo not given)
T/C [6]: 100 % of control
T/C [7]: 91 % of control
T/C [8]: 86 % of control

CC(=O)OCC(OC(C)=O)C(OC(C)=O)C(OC(C)=O)C(C#N)OC(C)=O (stereo not given)
T/C (dose: 75.0 mg/kg/injection, schedule: Q01DX009 (ip), vehicle: saline with Tween-80): 100 % of control
T/C [10]: 105 % of control
T/C [6]: 100 % of control
T/C (dose: 150.0 mg/kg/injection, schedule: Q01DX009 (ip), vehicle: saline with Tween-80): 100 % of control
T/C [11]: 120 % of control
T/C [7]: 100 % of control
T/C [8]: 100 % of control

O=C(O)Cn1c(C(F)(F)F)nc2nc(Cl)c(Cl)nc21
T/C [10]: 90 % of control
T/C [11]: 90 % of control
T/C [12]: 100 % of control

CCOC(=O)Cn1nc(-c2ccc([N+](=O)[O-])o2)oc1=O
T/C [9]: 97 % of control
T/C [10]: 95 % of control
T/C [11]: 103 % of control

CCOc1ccn(CC(=O)c2ccc(Cl)s2)c(=O)n1
T/C [9]: 106 % of control
T/C [10]: 113 % of control
T/C [11]: 97 % of control
T/C [12]: 106 % of control

O=C(O)Cc1nc(Cl)ccc1Cl
T/C [9]: 106 % of control
T/C [10]: 100 % of control
T/C [11]: 92 % of control

COc1ccc(C2CCc3cc4c(cc3/C2=N/O)OCO4)cc1OC (stereo not given)
T/C [10]: 104 % of control
T/C [6]: 100 % of control
T/C [11]: 104 % of control
T/C [7]: 100 % of control
T/C [12]: 95 % of control
T/C [8]: 90 % of control

CCOC12CC(OC(=O)N1)C(C)C1OC1(C)C(OC(=O)C(C)N(C)C(C)=O)CC(=O)N(C)c1cc(cc(OC)c1Cl)C/C(C)=C/C=CC2OC (stereo not given)
T/C (dose: 1.6 micrograms/kg/injection, schedule: Q01DX009 (ip), vehicle: saline + alcohol): 99 % of control
T/C (dose: 3.1 micrograms/kg/injection, schedule: Q01DX009 (ip), vehicle: saline + alcohol): 99 % of control
T/C (dose: 6.2 micrograms/kg/injection, schedule: Q01DX009 (ip), vehicle: saline + alcohol): 99 % of control
T/C (dose: 12.5 micrograms/kg/injection, schedule: Q01DX009 (ip), vehicle: saline + alcohol): 101 % of control
T/C (dose: 25.0 micrograms/kg/injection, schedule: Q01DX009 (ip), vehicle: saline + alcohol): 116 % of control
T/C (dose: 50.0 micrograms/kg/injection, schedule: Q01DX009 (ip), vehicle: saline + alcohol): 98 % of control
T/C (dose: 100.0 micrograms/kg/injection, schedule: Q01DX009 (ip), vehicle: saline + alcohol): 105 % of control
T/C (dose: 200.0 micrograms/kg/injection, schedule: Q01DX009 (ip), vehicle: saline + alcohol): 98 % of control
T/C (dose: 400.0 micrograms/kg/injection, schedule: Q01DX009 (ip), vehicle: saline + alcohol): 100 % of control

O=C1C=CC(=O)N1CCc1ccccc1
T/C (dose: 5.0 mg/kg/injection, schedule: Q01DX009 (ip), vehicle: saline with Tween-80): 100 % of control
T/C (dose: 10.0 mg/kg/injection, schedule: Q01DX009 (ip), vehicle: saline with Tween-80): 92 % of control
T/C (dose: 10.0 mg/kg/injection, schedule: Q04DX003 (ip), vehicle: saline with Tween-80): 108 % of control
T/C (dose: 20.0 mg/kg/injection, schedule: Q01DX009 (ip), vehicle: saline with Tween-80): 92 % of control
T/C (dose: 20.0 mg/kg/injection, schedule: Q04DX003 (ip), vehicle: saline with Tween-80): 108 % of control

COc1ccc(C=NCCN=Cc2ccc(OC)c(OC)c2)cc1OC
T/C [10]: 105 % of control
T/C [6]: 95 % of control
T/C [11]: 100 % of control
T/C [7]: 91 % of control
T/C [12]: 100 % of control
T/C [8]: 91 % of control

O=C(CBr)NCC1OC(n2cnc3c(=O)[nH]cnc32)C(O)C1O (stereo not given)
T/C (dose: 50.0 mg/kg/injection, schedule: Q01DX001 (ip), vehicle: Klucel (hydroxypropylcellulose) (HPC)): 109 % of control
T/C [1]: 101 % of control
T/C [3]: 106 % of control

CN(Cc1cnc2nc(N)nc(N)c2n1)c1c(Cl)cc(C(=O)NC(CCC(=O)O)C(=O)O)cc1Cl (stereo not given)
T/C (dose: 17.5 mg/kg/injection, schedule: Q01DX009 (ip), vehicle: saline): 213 % of control
T/C (dose: 35.0 mg/kg/injection, schedule: Q01DX009 (ip), vehicle: saline): 270 % of control
T/C (dose: 70.0 mg/kg/injection, schedule: Q01DX009 (ip), vehicle: saline): 270 % of control
T/C [10]: 95 % of control
T/C [11]: 86 % of control
T/C (dose: 264.0 mg/kg/injection, schedule: Q04DX003 (ip), vehicle: saline with Tween-80): 175 % of control
T/C [8]: 241 % of control
T/C (dose: 600.0 mg/kg/injection, schedule: Q04DX003 (ip), vehicle: saline with Tween-80): 250 % of control

CCCC1CC[N-]CC1.CCCC1CC[N-]CC1.[Cl][Pd][Cl]
T/C (dose: 12.5 mg/kg/injection, schedule: Q04DX003 (ip), vehicle: water): 95 % of control
T/C (dose: 25.0 mg/kg/injection, schedule: Q01DX009 (ip), vehicle: water): 114 % of control
T/C (dose: 50.0 mg/kg/injection, schedule: Q01DX009 (ip), vehicle: water): 114 % of control
T/C (dose: 100.0 mg/kg/injection, schedule: Q04DX003 (ip), vehicle: water): 90 % of control and 112 % of control and 120 % of control
T/C (dose: 200.0 mg/kg/injection, schedule: Q04DX003 (ip), vehicle: water): 95 % of control and 99 % of control and 120 % of control
T/C (dose: 300.0 mg/kg/injection, schedule: Q04DX003 (ip), vehicle: water): 96 % of control

CCOc1ccccc1NC1=C(OC)C(=O)C(Nc2ccccc2OCC)=C(OC)C1=O
T/C (dose: 100.0 mg/kg/injection, schedule: Q01DX009 (ip), vehicle: Klucel (hydroxypropylcellulose) (HPC)): 100 % of control
T/C [2]: 91 % of control
T/C (dose: 200.0 mg/kg/injection, schedule: Q01DX009 (ip), vehicle: Klucel (hydroxypropylcellulose) (HPC)): 95 % of control
T/C [4]: 91 % of control and 100 % of control
T/C (dose: 400.0 mg/kg/injection, schedule: Q01DX009 (ip), vehicle: Klucel (hydroxypropylcellulose) (HPC)): 100 % of control
T/C [5]: 86 % of control

CCOC(=O)C1CC1c1ccccc1 (stereo not given)
T/C [9]: 110 % of control
T/C [10]: 115 % of control and 121 % of control
T/C [11]: 119 % of control
T/C [12]: 112 % of control
